Values of other authors in US20040248232A1, “Method for treating Alzheimer's dementia” (priority 2003, published 2004).

Assays:
purified rat cathepsin B = purified rat cathepsin B (Rattus norvegicus, UniProt P00787); settings: at 10 uM; cited from earlier work
cathepsin C = cathepsin C (Homo sapiens, UniProt P53634); settings: at micromolar levels; cited from earlier work
Colon-26 cancer cells = settings: intravenous or p.o. administration, mice; cited from earlier work
cathepsin K = molecular target: T1, cathepsin K (Homo sapiens, UniProt P43235); settings: at micromolar levels; cited from earlier work
T1 sequence (P43235 115-329): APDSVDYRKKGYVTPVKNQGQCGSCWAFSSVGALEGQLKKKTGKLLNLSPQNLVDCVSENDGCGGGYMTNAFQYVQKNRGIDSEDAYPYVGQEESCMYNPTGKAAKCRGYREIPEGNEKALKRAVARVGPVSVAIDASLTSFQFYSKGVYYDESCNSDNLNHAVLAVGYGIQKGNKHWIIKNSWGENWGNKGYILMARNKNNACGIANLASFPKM

[1] = tested on: cancer induced osteoporosis; settings: intravenous or p.o. administration, mice; cited from earlier work
[2] = tested on: human melanoma cells A375; settings: intravenous or p.o. administration, mice; cited from earlier work
purified rat cathepsin L = purified rat cathepsin L (Rattus norvegicus, UniProt P07154); settings: cited from earlier work
[3] = molecular target: T2, cathepsin L activity in liver (Mus musculus, UniProt P06797); settings: intraperitoneal injection, mice; cited from earlier work
T2 construct: host or cells: mouse liver (endogenous, in vivo dosing)

cathepsin S [4] = molecular target: T3, cathepsin S (Homo sapiens, UniProt P25774); settings: at micromolar levels; cited from earlier work
cathepsin B activity = molecular target: T4, cathepsin B activity (Mus musculus, UniProt P10605); settings: intraperitoneal injection, mice; cited from earlier work
T4 construct: host or cells: mouse (liver implied by the sentence), endogenous, in vivo dosing

cathepsin L = cathepsin L (Homo sapiens, UniProt P07711); settings: relative to recombinant human cathepsin B; cited from earlier work
[5] = molecular target: recombinant human cathepsin B (Homo sapiens, UniProt P07858); settings: cited from earlier work
cathepsin S [6] = molecular target: T3, cathepsin S; settings: relative to recombinant human cathepsin B; cited from earlier work
cathespin B = cathespin B (Homo sapiens, UniProt P07858); settings: cited from earlier work
[7] = molecular target: T5, cathepsin L activity in DLD-1 cells (Homo sapiens, UniProt P07711); settings: cited from earlier work
T5 construct: host or cells: DLD-1 cells (endogenous)
T5 sequence (P07711 114-333): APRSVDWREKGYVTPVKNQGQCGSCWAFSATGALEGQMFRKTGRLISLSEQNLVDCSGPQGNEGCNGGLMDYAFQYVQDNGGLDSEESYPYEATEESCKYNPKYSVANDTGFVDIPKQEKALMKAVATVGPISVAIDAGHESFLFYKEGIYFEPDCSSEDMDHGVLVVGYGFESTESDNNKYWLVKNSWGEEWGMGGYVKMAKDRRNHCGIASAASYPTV

Chain of purified rat cathepsin L (P07154 114-334): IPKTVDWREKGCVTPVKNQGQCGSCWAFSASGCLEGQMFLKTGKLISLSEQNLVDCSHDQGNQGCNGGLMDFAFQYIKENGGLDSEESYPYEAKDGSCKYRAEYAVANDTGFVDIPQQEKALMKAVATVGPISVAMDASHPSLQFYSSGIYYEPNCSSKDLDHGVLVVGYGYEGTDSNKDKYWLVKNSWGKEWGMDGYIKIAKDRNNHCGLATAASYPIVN
T3 sequence (P25774 115-331, species assumed): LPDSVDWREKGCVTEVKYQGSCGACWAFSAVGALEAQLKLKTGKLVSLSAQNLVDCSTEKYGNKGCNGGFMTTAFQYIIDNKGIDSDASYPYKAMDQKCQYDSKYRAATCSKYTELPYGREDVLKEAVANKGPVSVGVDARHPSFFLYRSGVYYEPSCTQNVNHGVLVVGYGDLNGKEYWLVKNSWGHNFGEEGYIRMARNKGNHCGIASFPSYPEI
T4 sequence (P10605 80-333): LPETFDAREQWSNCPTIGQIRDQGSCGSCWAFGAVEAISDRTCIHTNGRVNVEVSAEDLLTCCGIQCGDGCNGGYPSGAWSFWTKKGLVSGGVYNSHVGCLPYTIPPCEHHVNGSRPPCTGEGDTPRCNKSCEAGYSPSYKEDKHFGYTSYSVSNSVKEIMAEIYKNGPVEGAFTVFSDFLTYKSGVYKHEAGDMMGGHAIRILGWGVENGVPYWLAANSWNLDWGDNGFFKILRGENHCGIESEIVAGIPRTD
Chain of cathepsin C (P53634 25-463): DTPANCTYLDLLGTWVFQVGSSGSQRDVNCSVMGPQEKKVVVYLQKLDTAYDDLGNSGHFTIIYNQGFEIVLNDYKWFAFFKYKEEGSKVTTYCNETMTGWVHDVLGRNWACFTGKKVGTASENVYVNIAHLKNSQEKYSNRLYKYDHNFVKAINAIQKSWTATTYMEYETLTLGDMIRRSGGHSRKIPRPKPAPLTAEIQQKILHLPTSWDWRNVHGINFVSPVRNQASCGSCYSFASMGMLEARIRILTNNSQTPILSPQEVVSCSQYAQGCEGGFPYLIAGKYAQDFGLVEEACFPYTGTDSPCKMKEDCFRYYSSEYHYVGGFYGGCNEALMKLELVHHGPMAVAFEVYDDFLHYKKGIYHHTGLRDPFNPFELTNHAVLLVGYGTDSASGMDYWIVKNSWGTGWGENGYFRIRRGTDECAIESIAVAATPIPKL
Chain of purified rat cathepsin B (P00787 80-333): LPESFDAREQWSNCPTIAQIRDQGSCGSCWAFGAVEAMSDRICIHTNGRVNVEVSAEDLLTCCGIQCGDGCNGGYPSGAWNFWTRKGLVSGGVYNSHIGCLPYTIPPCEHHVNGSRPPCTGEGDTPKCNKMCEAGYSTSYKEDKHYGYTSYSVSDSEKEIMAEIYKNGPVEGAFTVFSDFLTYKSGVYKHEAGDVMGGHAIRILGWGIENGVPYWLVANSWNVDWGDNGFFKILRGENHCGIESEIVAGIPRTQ
Chain of cathepsin L (P07711 114-333, species assumed): as the sequence (P07711 114-333) above
T2 sequence (P06797 114-334): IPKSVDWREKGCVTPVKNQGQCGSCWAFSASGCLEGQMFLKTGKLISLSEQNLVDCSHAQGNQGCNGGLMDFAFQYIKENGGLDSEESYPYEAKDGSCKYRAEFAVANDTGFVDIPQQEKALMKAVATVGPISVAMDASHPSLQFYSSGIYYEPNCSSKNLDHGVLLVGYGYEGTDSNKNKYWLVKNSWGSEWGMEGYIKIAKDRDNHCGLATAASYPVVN

CN(C)C(=O)[C@H](Cc1ccccc1)NC(=O)C1OC1C(=O)NCCc1ccccn1 (stereo in doubt) [CLIK-148]
effect on purified rat cathepsin B activity (purified rat cathepsin B): no effect | activity on cathepsin C (cathepsin C): minimal activities | bone metastasis of Colon-26 cancer cells (Colon-26 cancer cells): blocked bone metastasis | activity on cathepsin K (cathepsin K): minimal activities | cancer induced osteoporosis [1]: blocked cancer induced osteoporosis | bone metastasis of human melanoma cells A375 [2]: blocked bone metastasis | inhibition of purified rat cathepsin L activity (purified rat cathepsin L; at 1 uM): completely inhibited | level at which purified rat cathepsin L activity is inhibited (purified rat cathepsin L): submicromolar levels | cathepsin L activity in liver [3]: dose dependently inhibited | activity on cathepsin S (cathepsin S [4]): minimal activities | cathepsin B activity (cathepsin B activity): no effect

Cc1cccc(C[C@H](NC(=O)c2ccc(F)cc2F)C(=O)N[C@@H](C#N)COCc2cccc(C(=O)O)c2)c1 [N-[2-[(3-Carboxyphenyl)methoxyl-1-(S)-cyanoethyl]-3-methyl-N-(2,4-difluorobenzoyl)-L-phenylalaninamide]
fold less potent in blocking cathepsin L than cathepsin B (cathepsin L): approximately 100 fold | recombinant human cathepsin B activity [5]: inhibit | fold less potent in blocking cathepsin S than cathepsin B (cathepsin S [6]): approximately 100 fold

CC(C)C[C@H](NC(=O)[C@H]1CCCN1C#N)C(=O)OCc1ccccc1 [1-cyano-(D)-prolylleucine benzyl ester]
activity on cathespin B (cathespin B): minimal activity | cathepsin L activity in DLD-1 cells [7]: completely inhibited
